The values that follow are results of earlier work, collected in patent US20150328215A1, “STABLE AMORPHOUS RALTEGRAVIR POTASSIUM PREMIX AND PROCESS FOR THE PREPARATION THEREOF” (priority 2012, published 2015).

For data set [1] the following is noted: water.
For data set [2] the following is noted: in vivo.

With `Cc1nnc(C(=O)NC(C)(C)c2nc(C(=O)NCc3ccc(F)cc3)c(O)c(=O)n2C)o1` [Raltegravir], the aqueous solubility result in data set [1] is listed as “poor aqueous solubility”.

With `Cc1nnc(C(=O)NC(C)(C)c2nc(C(=O)NCc3ccc(F)cc3)c([O-])c(=O)n2C)o1.[K+]` [Form 1], in data set [2], the “bioavailability compared with Raltegravir free base” value is reported as “superior bioavailability”.

For the molecule `Cc1nnc(C(=O)NC(C)(C)c2nc(C(=O)NCc3ccc(F)cc3)c([O-])c(=O)n2C)o1.[K+]` [potassium salt of Raltegravir, potassium N-(4-fluorobenzyl)-5-hydroxy-1-methyl-2-(1-methyl-1-{[(5-methyl-1,3,4-oxadiazol-2-yl)carbonyl]amino}ethyl)-6-oxo-1,6-dihydropyrimidine-4-carboxamide], the aqueous solubility result in data set [1] is on record as “significantly more soluble in water”.
